# From patent US20260207551A1, “PHOSPHOGLICERATE DEHYDROGENASE INHIBITORS FOR THE TREATMENT OF FIBROSIS” (CHIESI FARMACEUTICI S.P.A., priority 2022, published 2026)
# Like-named read-outs stand apart in the source and are kept apart here.
# How the values were obtained:
# [1] = tested on: alpha smooth muscle actin (α-SMA); assay: TGF-b induced α-SMA expression in NHLFs (Western blot); format: cell-based, Human; details: NHLF, TGF-β (10 ng/ml) 48 h
# Source text: The antifibrotic activity of compounds of the present invention has been monitored measuring the expression of fibrotic mediators, collagen I (Col-I) and alpha smooth muscle actin (α-SMA) after treatment in lung cells with TGF-β in comparison with Nintedanib (see Frank Hilberg et al, Cancer Res 2008 Jun. 15; 68(12):4774-82), and allosteric inhibitor NCT-503 (see Hamanaka et al., Am J Respir Cell Mol Biol. 2018 May; 58(5):585-593).
# (§1) Human normal lung fibroblasts (NHLFs) were purchased from Lonza (Basel, Switzerland). NHFLs were cultured in Eagle's Minimum Essential medium (EMEM) w/o serine and glycine, supplemented with 10% Fetal Bovine Serum (FBS), antibiotics (50 U/ml penicillin and 0.05 mg/ml streptomycin) and 2 mM L-glutamine, in an atmosphere of 95% air and 5% CO2 at 37° C. NHLFs cultures were used between passage 1 and 9. Before all the experiments, cells were incubated overnight in serum-free medium.
# NHLFs were seeded in 12-well plates at cultured until 70% of confluency. To examine the expression of fibrotic markers, cells were treated with different concentrations of Compounds and NCT-503 in EMEM medium for 1 h followed by stimulation with TGF-β for 48 h at 37° C., 5% CO2. Following cell treatments, medium was removed and whole cell extracts were prepared by directly adding to the well the 1× loading buffer (125 mM Tris-HCl pH 6.8, 4% SDS, 0.2% Orange G, 50% glycerol, 2.5% β-mercaptoethanol, Li-cor Biosciences), boiled for 5 min and then electrophoresed on Mini protean TGX gel 4-12% (Biorad). After electrophoresis, proteins were transferred to a nitrocellulose membrane. Immunodetection of Col-I, α-SMA and glyceraldeide 3-phosphate dehydrogenase (GAPDH) were obtained by using mouse anti-CollA1 (Santacruz), mouse anti-α-SMA (sigma) and rabbit anti-GAPDH (Cell Signaling Technology) all diluted at 1:1000 in TBS-tween 0.1%. […] Detection and quantification were performed with Odyssey imaging system (Li-cor) using GAPDH as loading control.
# [2] = tested on: NHLFs; assay: FBS induced proliferation of NHLFs (BrdU incorporation); format: cell-based, Human
# Experimental: as §1
# The antiproliferative activity of compounds of the present invention has been monitored measuring the incorporation of bromodeoxyuridine (BrdU), a thymidine analog of DNA, in newly synthesized DNA after treatment in lung cells. Briefly, NHLFs were seeded in 96-well and treated with different concentrations of Compound 19 and NCT-503 in EMEM medium for 1 h followed by stimulation with Fetal Bovine Serum (FBS) for 72 h at 37° C., 5% CO2. After cell treatments, 10 μl/well BrdU labeling solution was added for incorporation in proliferating cells for 2 h at 37° C., 5% CO2. After removing the culture medium, the cells are fixed, and the DNA is denatured by adding FixDenat followed by incubation with 100 μl/well Anti-BrdU-POD for detection. The reaction product is quantified by measuring the absorbance at the respective wavelength using a scanning multiwell spectrophotometer (ELISA reader).
# [3] = tested on: synthesis of 13C3-serine; assay: PK/PD model: in vivo [13C6] glucose tracing, inhibition of 13C3-serine synthesis; parameters: species or system mouse male (C57BL/6J); details: for inhibition at 300 mg/kg: Mus musculus
# Experimental: As PHGDH catalyzes the rate-limiting step of glucose-derived serine synthesis, a pharmacokinetic/pharmacodynamic (PK/PD) experiment aimed to assess the inhibition of the synthesis of ^13C3-serine after oral administration of ^13C6-glucose was performed in mouse male (C57BL/6J).
# Animals were fasted overnight before treatment. Following 0.5 h from administration of either Compound 19 at dose of 300 mg/kg or vehicle (0.5% Tween 80, 0.5% Methylcellulose in H2O), ^13C6-glucose was administered by oral gavage (2 g/kg, Merck Life Science Srl). Blood, lung, and brain samples were collected at 1 h, 6.5 h and 24.5 h after treatment with Compound 19 or vehicle.
# The tissue concentration of ^13C3-serine was determined by a liquid chromatography-tandem mass spectrometry (LC/MS/MS) assay. GraphPad Prism (version 8.1.2) was used for drawing graphs and for statistical analysis. Plasma or tissue homogenate samples (tissues were homogenized with a water/acetonitrile 50/50 mixture) were extracted with 3 volumes of acetonitrile. Supernanatant was injected into HPLC system (Agilent 1260 Quaternary Pump equipped with an Agilent 1200 High Performance Autosampler SL; Agilent), using a Kinetex EVO C18 analytical column (100 A, 50×2.1 mm, 2.6 μm; Phenomenex) for the analysis of Compound 19 or an InfinityLab Poroshell 120 Hilic-Z (50×2.1 mm 2.7 μm; Agilent) for the analysis of ^13C3-serine. The mobile phases consisted of 0.1% formic acid in water (solvent A) and 0.1% formic acid in acetonitrile (solvent B); chromatographic separation was performed with gradient elution method (see conditions below): • Compound 19 (0.0-0.5 min, 10% B; 0.5-3.0 min, gradient to 90% B; 3.0-5.0 min. 90% B; 5.0-6.0 min, gradient to 10% B; 6.0-10.0 min, 10% B—flow rate: 0.4 mL/min). • S^13C3-serine (0.0-0.5 min, 95% B; 0.5-4.0 min, gradient to 60% B; 4.0-5.0 min, 60% B; 5.0-6.0 min, gradient to 95% B; 6.0-10.0 min, 95% B—flow rate: 0.4 mL/min).
# Mass spectrometric analysis was performed on a linear ion trap triple quadrupole mass spectrometer (4000 Q TRAP; AB SCIEX) equipped with a turbo spray ion source; mass spectrometer was operated in positive ion mode and quantification was achieved by multiple reaction monitoring (MRM) mode. Peak integration was performed using Analyst (version 1.6.2.). GraphPad Prism (version 8.1.2) was used for drawing graphs and for statistical analysis.
# After 0.5 h from administration of Compound 19a at dose of 3, 10, 30, 100 and 300 mg/kg po, Compound 19 at dose of 300 mg/kg po or vehicle po (0.5% Tween 80, 0.5% Methylcellulose in H2O), mice received ^13C6-glucose by oral gavage (2 g/kg, Merck Life Science Srl). […] Blood was withdrawn by cardiac puncture and collected in heparin tubes.
# [4] = Plasma exposure after the last dose in bleomycin model (Example 5); format: in vivo, Male C57BL6/J mice; details: 0.5 h, 2 h and 7 h
# Experimental: The Bioanalysis of Compound 19 in plasma was carried out under the same experimental conditions as reported in Example 3.
# Plasma exposure of Compound 19 was determined following the last oral dose at three timepoints (0.5 h, 2 h and 7 h).
compound,measurement,setting,value
"CC(C)C(C(=O)O)c1ccc(C2(NC(=O)c3cc4c(Cl)c(Cl)ccc4n3C)CCOC2)cc1 (racemic) [Compound 19, (±)-2-(4-(3-(4,5-Dichloro-1-methyl-1H-indole-2-carboxamido)tetrahydro-furan-3-yl)phenyl)-3-methylbutanoic acid]","inhibition of release of α-SMA (comparison, FIG. 2)",[1]; Compound 19 50 uM vs NCT-503 50 uM and Nintedanib 1 uM,in a more efficacious manner than the NCT-503 (50 uM) and even more than the Nintedanib (1 uM)
same,inhibition at 50 µM,"[1]; Homo sapiens, 50 uM, read-out: TGF-b induced a-sma (% inh. 50 uM)",97%
same,IC50,"[2]; Homo sapiens, NHLF, FBS 72 h, confidence interval in brackets, NA: not active, read-out: FBS induced proliferation (pIC50-C.I.) (converted)",631 nM
same,cell proliferation induced by serum treatment (FIG. 3),"[2]; NHLFs, 72 h",able to reduce the cell proliferation
same,brain serine concentration (in words),"[3]; 300 mg/kg po, 1 h",without reaching the statistical significance
same,inhibition of labelled serine in brain,"[3]; 300 mg/kg, any timepoint (1, 6.5, 24.5 h)",no significant inhibition
same,inhibition at 300 mg/kg,"[3]; 300 mg/kg po, 1 h, read-out: inhibition of labelled serine in lung",85%
same,inhibition at 300 mg/kg,"[3]; 300 mg/kg po, 1 h, read-out: inhibition of labelled serine in plasma",87%
same,inhibition at 300 mg/kg,"[3]; 300 mg/kg, at 1 and 6.5 h, read-out: inhibition of labelled serine in plasma and lung",70 to 85%
same,plasma exposure following the last oral dose,[4],good oral exposure
